# The source made the active and inactive calls. Cut-off read from the data, not from the text of the source, for most assays here: actives have a measured EC50 and inactives only a lower limit.
# Columns and labels:
# [1] = C. albicans growth with fluconazole, confirmation, fluorescence, retest (AID 2467); assay type: functional, cell-based
# [2] = NIH-3T3 fibroblast cytotoxicity, dose response, cytotoxicity control, cell-based, fluorescence, Alamar Blue, secondary assay (AID 2327); assay type: functional;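 note: NIH-3T3 mouse fibroblasts cultured with fluconazole at 8 µg/mL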
# [3] = biological target: Luciferin 4-monooxygenase (Photinus pyralis, UniProt P08659); experiment: firefly luciferase enzyme inhibitors, dose response, biochemical, luminescence (AID 1891)
# [4] = Luminescence Cell-Based Dose Confirmation HTS to Identify Inhibitors of Platelet Dense Granule Release. [Related pubchem assays: 1663 (Primary HTS), 1678 (Summary of Project)]; assay type: functional
# [5] = biological target: T1, Heat shock factor protein 1 (Mus musculus, UniProt P38532); experiment: HSF1 potentiators in luciferase reporter cells, confirmation, cell-based, NIH3T3, luminescence, dose retest (AID 435004); assay type: functional;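 note: stress induced by proteasome inhibitor MG132 added 30 min after compound; luciferase reporter driven by HSF1 response element in NIH3T3 cells; actives raise luminescence as potentiators of the MG132 stress response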
# T1 sequence (P38532 whole entry): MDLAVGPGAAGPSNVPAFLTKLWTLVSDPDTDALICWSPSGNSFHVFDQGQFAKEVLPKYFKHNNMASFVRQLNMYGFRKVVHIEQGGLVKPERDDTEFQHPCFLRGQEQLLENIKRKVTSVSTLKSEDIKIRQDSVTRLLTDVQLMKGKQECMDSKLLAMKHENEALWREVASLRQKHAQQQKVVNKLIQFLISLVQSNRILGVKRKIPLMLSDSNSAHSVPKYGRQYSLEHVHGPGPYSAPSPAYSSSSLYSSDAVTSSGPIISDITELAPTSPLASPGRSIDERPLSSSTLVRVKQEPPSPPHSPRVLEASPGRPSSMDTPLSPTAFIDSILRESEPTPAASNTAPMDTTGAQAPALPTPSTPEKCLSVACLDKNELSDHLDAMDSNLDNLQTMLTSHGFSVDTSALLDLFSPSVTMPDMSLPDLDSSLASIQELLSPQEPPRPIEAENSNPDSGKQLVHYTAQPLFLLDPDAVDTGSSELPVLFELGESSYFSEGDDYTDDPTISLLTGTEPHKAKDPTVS
# BJ [6] = experiment: cells; assay type: functional, cell-based; settings: Homo sapiens
# BJ [7] = experiment: cytotoxicity toward BJ-TERT-LT-ST fibroblasts, dose response, cell-based, RAS-independent, luminescence (AID 1935); assay type: functional; settings: Homo sapiens;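 note: BJ fibroblasts immortalized with TERT plus LT and ST oncogenes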
# BJ [8] = experiment: cytotoxicity toward BJ-TERT fibroblasts, dose response, cell-based, RAS-independent, luminescence (AID 1933); assay type: functional; settings: Homo sapiens
# [9] = cytotoxicity toward DRD oncogenic fibroblasts, dose response, cell-based, non-viral oncogenic, luminescence (AID 1934); assay type: functional; settings: Homo sapiens
# cells [10] = assay type: functional, cell-based
# cells [11] = assay type: functional, cell-based; remark: listed apart in the source
# [12] = inhibitors of intracellular T. cruzi replication, confirmation, NIH3T3 host cells, beta-gal luminescence (AID 2044); assay type: functional, cell-based;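 note: intracellular parasites grown in NIH/3T3 mouse fibroblasts as host cells; luminescent beta-galactosidase reporter signal from transgenic T. cruzi replicating inside host cells; inhibitors lower the luminescence signal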
# [13] = cytotoxicity toward NIH3T3 fibroblasts, dose response, counter-screen, cell-based, ATP luminescence, mouse fibroblasts (AID 2010); assay type: functional;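 note: cells exposed to compound for about 90 hours before reading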
# [14] = biological target: T2, Corticotropin-releasing factor receptor 2/Corticotropin-releasing factor-binding protein (Homo sapiens, UniProt P24387+Q13324); experiment: activators of CRF receptor 2 with binding protein – uHTS hits, confirmation (AID 602473); assay type: functional; settings: read-out: EC50_Mean
# T2 sequence (Q13324 whole entry): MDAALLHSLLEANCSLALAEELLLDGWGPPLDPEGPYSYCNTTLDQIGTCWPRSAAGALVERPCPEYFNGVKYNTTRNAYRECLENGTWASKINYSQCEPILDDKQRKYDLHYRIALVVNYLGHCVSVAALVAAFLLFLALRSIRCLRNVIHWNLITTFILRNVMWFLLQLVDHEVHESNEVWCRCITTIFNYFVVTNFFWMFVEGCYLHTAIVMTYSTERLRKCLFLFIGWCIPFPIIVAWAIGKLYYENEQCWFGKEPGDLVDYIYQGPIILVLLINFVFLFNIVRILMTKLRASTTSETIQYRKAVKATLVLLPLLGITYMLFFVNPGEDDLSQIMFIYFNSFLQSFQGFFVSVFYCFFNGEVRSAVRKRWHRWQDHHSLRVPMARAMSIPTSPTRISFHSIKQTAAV
# T2 sequence (P24387 whole entry): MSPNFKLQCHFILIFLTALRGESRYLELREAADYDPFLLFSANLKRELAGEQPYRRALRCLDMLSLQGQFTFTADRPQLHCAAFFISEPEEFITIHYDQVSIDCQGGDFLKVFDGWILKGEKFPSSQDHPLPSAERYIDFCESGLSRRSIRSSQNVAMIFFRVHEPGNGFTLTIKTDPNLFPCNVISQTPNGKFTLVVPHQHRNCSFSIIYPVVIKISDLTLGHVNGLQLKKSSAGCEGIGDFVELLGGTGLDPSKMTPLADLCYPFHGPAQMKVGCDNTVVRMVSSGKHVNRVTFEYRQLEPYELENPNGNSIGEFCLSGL
# Streptococcus = experiment: Group A Streptococcus viability loss, dose response, counter-screen for streptokinase expression inhibitor project, luminescence, BacTiterGlo (AID 1915); assay type: functional, organism-based;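 note: potency for reduction of bacterial viability or growth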
# [15] = biological target: T2, Corticotropin-releasing factor receptor 2/Corticotropin-releasing factor-binding protein; experiment: Dose Response confirmation of uHTS hits for small molecule antagonists of the CRF-binding protein and CRF-R2 receptor complex.; assay type: functional; settings: read-out: IC50_Mean
# Streptokinase A = biological target: T3, Streptokinase A (Streptococcus pyogenes serotype M1, UniProt P10520); experiment: S. pyogenes streptokinase expression inhibitors, potency, dose response, plasminogen activation absorbance, OD405 (AID 1914); assay type: functional, Streptococcus pyogenes M1 GAS;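 note: secreted streptokinase activity via plasminogen activation per viability signal from cell pellet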
# T3 sequence (P10520 whole entry): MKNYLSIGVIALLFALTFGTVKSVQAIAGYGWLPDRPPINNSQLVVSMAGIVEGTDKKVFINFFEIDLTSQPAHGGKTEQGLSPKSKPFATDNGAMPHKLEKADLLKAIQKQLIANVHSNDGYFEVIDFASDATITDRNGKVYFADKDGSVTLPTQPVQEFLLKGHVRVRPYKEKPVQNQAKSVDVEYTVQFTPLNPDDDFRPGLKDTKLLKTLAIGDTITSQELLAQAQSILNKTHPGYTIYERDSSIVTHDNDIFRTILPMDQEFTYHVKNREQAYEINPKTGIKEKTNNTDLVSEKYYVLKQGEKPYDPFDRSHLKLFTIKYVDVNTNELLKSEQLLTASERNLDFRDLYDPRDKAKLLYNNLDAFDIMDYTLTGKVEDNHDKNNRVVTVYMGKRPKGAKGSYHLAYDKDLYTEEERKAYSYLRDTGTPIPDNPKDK
# [16] = test system: Streptococcus sp. 'group A'; experiment: growth inhibition of control SK(-) GAS strain, dose response, counter-screen for streptokinase expression inhibitor project, luminescence, kanamycin, BacTiterGlo, confirmation (AID 1900); assay type: functional, organism-based
# [17] = control 3'UTR Renilla luciferase suppression, dose response, counter-screen for Shn3 inhibitor project, cell-based, Clone20-Shn3RL, cherry-picked (AID 624133); assay type: functional
# [18] = Shn3 3'UTR reporter inhibitors, dose response, cell-based, Clone20 osteoblasts, firefly luciferase, cherry-picked (AID 624132); assay type: functional;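 note: firefly luciferase luminescence from reporter carrying the Shn3 3'UTR in osteoblasts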
# Sequence of Luciferin 4-monooxygenase (P08659 whole entry): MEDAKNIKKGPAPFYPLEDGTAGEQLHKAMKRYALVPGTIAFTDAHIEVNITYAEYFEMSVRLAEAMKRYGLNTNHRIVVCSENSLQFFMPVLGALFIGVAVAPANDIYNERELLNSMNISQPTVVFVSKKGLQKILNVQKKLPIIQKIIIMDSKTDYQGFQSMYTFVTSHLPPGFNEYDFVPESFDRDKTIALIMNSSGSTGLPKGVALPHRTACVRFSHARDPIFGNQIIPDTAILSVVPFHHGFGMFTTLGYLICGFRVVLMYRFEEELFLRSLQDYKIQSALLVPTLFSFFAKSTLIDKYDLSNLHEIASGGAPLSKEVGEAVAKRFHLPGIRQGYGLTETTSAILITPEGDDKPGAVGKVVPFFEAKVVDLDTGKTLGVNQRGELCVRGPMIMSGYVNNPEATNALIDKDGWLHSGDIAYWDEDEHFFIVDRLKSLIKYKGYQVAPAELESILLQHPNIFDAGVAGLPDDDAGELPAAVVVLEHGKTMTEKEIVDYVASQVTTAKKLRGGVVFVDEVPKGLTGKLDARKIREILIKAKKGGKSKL
smiles,measurement,setting,value
Cc1ccc(NC(=O)NCc2ccccn2)c(C)c1,EC50,[1],6.59 µM (active)
same,EC50,[2],> 160 µM (inactive)
Cc1cccc(NC2=NC(=S)N(c3cccc(C(=O)O)c3)C23CCCCC3)c1,EC50,[1],2.12 µM (active)
same,EC50,[2],19.7 µM (inconclusive)
CCCc1nc2oc3c(=O)nc[nH]c3c2c2c1CCCC2,EC50,[3],> 112 µM (not active)
CCCc1nc2oc3c(O)ncnc3c2c2c1CCCC2,EC50,[4],> 112 µM (not active)
COc1cc2nc(S)nc(NCc3cccs3)c2cc1OC,EC50,[5],> 260 µM (inactive)
CC(=O)n1c(Cl)c(NC(=O)CCl)c2ccccc21,EC50,BJ [6],> 150 µM (not active)
same,EC50,BJ [7],> 150 µM (not active)
same,EC50,BJ [8],25.1 µM (active)
same,EC50,[9],29.7 µM (active)
CCCCCCC1CCC(c2nc(-c3ccncc3)no2)CC1 (stereo not drawn),EC50,cells [10],> 350 µM (not active)
same,EC50,cells [11],> 350 µM (not active)
CN(CCCNC(=O)CCCOc1cc(=O)n(C)c2ccccc12)Cc1ccccc1,EC50,[1],> 38 µM (not active)
same,EC50,[12],0.46 µM (active)
same,EC50,[13],> 30 µM (not active)
same,EC50,[2],> 160 µM (inactive)
Cc1ccc2cccc(NC(=O)C(F)(F)F)c2n1,EC50,[5],> 260 µM (inactive)
Cc1ccccc1NS(=O)(=O)c1ccc(C)c(C(=O)N2CCOCC2)c1,EC50,[14],> 53 µM (inactive)
same,EC50,Streptococcus,> 150 µM (not active)
same,IC50,[15],> 47.1 µM (inactive)
same,EC50,Streptokinase A,> 150 µM (not active)
same,EC50,[16],> 150 µM (not active)
NC(=O)c1cc(N2C(=O)C=CC2=O)ccc1Cl,AC50,[17],25.5 µM (active)
same,AC50,[18],11.3 µM (active)
CN1CC(C(=O)c2ccc(F)cc2)C(c2c(F)cccc2Cl)C1 (stereo not drawn),EC50,[5],> 260 µM (inactive)
CC(NC(=O)CCc1nc2cc(S(=O)(=O)N3CCOCC3)ccc2n1C)c1ccc(S(N)(=O)=O)cc1 (stereo not drawn),EC50,[4],41.7 µM (active)
same,EC50,[3],> 112 µM (not active)
Cc1nc2c(s1)sc1ccccc12,EC50,[14],> 53 µM (inactive)
same,IC50,[15],> 47.1 µM (inactive)
CCOC(=O)C1=C(CNCc2ccccc2Cl)NC(=O)NC1c1cccc([N+](=O)[O-])c1 (stereo not drawn),EC50,[4],> 112 µM (not active)
same,EC50,[3],> 112 µM (not active)
Cc1cc(C)n2nc(/C(C#N)=C/c3ccccc3)c(C#N)c2n1,EC50,[14],> 53 µM (inactive)
same,IC50,[15],> 47.1 µM (inactive)
Cc1nc2cc3[nH]c(C(F)(F)F)nc3cc2[nH]1,EC50,[5],> 260 µM (inactive)
C#CC[N+]1(CC#Cc2ccccc2)CCCCC1,EC50,[5],> 260 µM (inactive)
CCOC(=O)C1CCCN(c2cc(C)nc3cc(-c4ccc(F)cc4)nn23)C1 (stereo not drawn),EC50,[1],> 38 µM (not active)
same,EC50,[2],> 160 µM (inactive)
